The source of these data is ChEMBL document CHEMBL1201862, “PubChem BioAssay data set” (2004).

Experiment [1] addresses T1, Replicative DNA helicase DnaB (Mycobacterium tuberculosis, UniProt P9WMR3).
T1 sequence (P9WMR3 whole entry): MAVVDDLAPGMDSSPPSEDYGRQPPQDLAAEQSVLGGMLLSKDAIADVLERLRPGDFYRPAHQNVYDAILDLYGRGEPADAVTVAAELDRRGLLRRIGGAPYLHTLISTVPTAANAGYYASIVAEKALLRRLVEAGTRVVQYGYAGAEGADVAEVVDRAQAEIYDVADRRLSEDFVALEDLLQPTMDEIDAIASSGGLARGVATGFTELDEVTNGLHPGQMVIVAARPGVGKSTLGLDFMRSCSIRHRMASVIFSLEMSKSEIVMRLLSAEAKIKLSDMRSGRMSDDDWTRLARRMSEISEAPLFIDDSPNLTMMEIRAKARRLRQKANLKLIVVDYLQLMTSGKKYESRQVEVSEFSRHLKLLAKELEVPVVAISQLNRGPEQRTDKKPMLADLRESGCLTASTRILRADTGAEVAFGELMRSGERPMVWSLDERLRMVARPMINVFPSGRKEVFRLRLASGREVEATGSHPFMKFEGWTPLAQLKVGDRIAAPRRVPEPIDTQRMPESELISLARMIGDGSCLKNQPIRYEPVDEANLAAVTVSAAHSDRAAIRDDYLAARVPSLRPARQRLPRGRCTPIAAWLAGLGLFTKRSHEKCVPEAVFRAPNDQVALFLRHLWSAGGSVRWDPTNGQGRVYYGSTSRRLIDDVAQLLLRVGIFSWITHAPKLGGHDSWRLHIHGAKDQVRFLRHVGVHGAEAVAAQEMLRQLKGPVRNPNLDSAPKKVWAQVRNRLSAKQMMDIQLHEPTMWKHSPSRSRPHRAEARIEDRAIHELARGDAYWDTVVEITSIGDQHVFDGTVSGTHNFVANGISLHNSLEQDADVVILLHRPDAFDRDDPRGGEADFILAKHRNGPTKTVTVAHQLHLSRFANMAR
Briefly: DnaB intein splicing inhibitors, dose response, biochemical, cell-free fluorescence (AID 449749). It counts as functional.

Experiment [2] concerns the target T2, Hepatocyte nuclear factor 4-alpha (Homo sapiens, UniProt P41235).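 Further: biochemical luminescence-based dose-response counterscreen measuring inhibition of HNF4 dimerization, run alongside a screen for blockers of ABHD5–perilipin-5 interaction; split luciferase complementation of HNF4 fusion proteins in cell lysate measuring dimerization.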
T2 sequence (P41235 whole entry): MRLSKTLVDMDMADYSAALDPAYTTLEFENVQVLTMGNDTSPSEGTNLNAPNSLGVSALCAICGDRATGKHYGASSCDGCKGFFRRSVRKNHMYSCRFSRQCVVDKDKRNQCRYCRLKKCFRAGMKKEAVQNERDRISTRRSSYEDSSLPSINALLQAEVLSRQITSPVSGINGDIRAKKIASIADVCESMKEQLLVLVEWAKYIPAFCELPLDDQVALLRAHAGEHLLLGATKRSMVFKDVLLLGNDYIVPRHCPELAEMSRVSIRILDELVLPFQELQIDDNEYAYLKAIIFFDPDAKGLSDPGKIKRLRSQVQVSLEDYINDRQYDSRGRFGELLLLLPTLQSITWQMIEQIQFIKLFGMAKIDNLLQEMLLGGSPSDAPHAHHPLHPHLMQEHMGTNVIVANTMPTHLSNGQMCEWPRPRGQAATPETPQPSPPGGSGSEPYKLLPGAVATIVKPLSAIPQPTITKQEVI
It counts as functional, cell-based.

The target of a further experiment is T3, Protein RecA (Mycobacterium tuberculosis, UniProt P9WHJ3).
T3 sequence (P9WHJ3 whole entry): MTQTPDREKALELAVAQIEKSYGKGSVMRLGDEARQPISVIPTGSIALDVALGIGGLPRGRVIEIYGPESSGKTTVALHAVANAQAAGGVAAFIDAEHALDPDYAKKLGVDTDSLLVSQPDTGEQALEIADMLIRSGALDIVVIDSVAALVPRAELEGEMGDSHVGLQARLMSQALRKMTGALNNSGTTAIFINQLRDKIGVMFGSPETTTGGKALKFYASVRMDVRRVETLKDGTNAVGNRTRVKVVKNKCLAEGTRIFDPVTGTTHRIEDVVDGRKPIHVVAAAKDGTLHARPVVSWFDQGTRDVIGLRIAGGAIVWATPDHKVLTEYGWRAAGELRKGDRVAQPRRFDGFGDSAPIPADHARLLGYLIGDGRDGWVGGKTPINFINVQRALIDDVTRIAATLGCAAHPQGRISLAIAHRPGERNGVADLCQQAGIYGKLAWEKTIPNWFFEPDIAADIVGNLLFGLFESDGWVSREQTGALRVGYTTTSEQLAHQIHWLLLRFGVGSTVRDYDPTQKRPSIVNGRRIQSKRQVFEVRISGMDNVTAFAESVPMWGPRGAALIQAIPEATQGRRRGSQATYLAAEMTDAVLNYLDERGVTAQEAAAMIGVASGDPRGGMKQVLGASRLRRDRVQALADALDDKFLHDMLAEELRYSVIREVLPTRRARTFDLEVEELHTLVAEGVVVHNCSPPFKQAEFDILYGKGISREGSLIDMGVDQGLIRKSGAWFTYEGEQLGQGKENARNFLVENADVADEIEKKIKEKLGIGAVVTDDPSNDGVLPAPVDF
Briefly: Fluorescence Cell-Free Homogeneous Dose Retest to Identify Inhibitors of RecA-Intein Splicing Activity. [Related pubchem assays (depositor defined):AID2097, AID2223, AID489010, AID492950]. The format is functional.

Experiment [3] is described as follows: Luminescence Cell-Based Dose Retest to Confirm Inhibitors of Cancer Stem Cells. [Related pubchem assays (depositor defined):AID2717, AID2721]. It counts as functional. Conditions: Homo sapiens.
A short description of experiment [4]: StAR promoter reporter inhibition counter-screen, dose response, counter-screen for LRH-1 inverse agonist project, cell-based, luminescence, luciferase reporter (AID 651969). The format is functional.
Experiment [5] deals with Nuclear receptor subfamily 5 group A member 2 (Homo sapiens, UniProt O00482). The format is functional, cell-based.
For a further experiment, the target named is Steroidogenic factor 1 (Homo sapiens, UniProt Q13285). Briefly: Counterscreen for inverse agonists of the liver receptor homolog-1 (LRH-1; NR5A2): Luminescence-based cell-based high throughput dose response assay to identify inverse agonists of the Steroidogenic Factor 1 Nuclear Receptor (SF1; NR5A1). It counts as functional. For orientation: The purpose of a counterscreen is to sort out artefacts and off-target activity.

Experiment [6] concerns the target T4, Corticotropin-releasing factor receptor 2/Corticotropin-releasing factor-binding protein (Homo sapiens, UniProt P24387+Q13324).
T4 sequence (Q13324 whole entry): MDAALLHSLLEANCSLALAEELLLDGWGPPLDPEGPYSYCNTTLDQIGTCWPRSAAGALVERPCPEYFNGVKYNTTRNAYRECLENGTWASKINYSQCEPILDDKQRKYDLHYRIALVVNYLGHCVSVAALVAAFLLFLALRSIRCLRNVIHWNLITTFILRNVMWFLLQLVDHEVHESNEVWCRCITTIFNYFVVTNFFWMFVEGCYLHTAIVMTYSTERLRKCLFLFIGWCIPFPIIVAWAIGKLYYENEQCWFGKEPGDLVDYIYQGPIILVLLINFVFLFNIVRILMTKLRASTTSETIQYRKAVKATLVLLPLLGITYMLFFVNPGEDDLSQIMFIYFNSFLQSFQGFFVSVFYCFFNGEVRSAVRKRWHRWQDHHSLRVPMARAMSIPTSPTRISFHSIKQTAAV
T4 sequence (P24387 whole entry): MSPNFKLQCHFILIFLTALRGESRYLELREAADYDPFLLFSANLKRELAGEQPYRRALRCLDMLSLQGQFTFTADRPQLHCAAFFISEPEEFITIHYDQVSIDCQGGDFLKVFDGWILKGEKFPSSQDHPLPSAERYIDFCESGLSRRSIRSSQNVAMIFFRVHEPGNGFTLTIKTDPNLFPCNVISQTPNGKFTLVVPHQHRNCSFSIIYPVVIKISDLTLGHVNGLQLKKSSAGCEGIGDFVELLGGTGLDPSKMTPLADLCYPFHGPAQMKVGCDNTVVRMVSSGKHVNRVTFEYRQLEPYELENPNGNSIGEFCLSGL
Briefly: Dose Response confirmation of uHTS hits for small molecule antagonists of the CRF-binding protein and CRF-R2 receptor complex. It counts as functional. Conditions: read-out: IC50_Mean.

Experiment [7] has as its target T5, Calpain-2 catalytic subunit (Sus scrofa, UniProt P43367).
T5 sequence (P43367 whole entry): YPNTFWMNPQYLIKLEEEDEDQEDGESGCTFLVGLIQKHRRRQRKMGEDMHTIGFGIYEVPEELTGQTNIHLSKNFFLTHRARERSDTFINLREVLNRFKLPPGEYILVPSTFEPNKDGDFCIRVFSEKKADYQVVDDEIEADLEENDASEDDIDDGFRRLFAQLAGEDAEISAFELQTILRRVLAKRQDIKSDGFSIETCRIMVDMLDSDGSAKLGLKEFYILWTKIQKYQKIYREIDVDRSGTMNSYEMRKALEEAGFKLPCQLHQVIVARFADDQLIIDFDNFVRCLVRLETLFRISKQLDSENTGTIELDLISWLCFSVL
Briefly: pig calpain II inhibitor potency, dose response, biochemical, fluorogenic peptide substrate (AID 1420). It counts as functional.

Experiment [8] has as its target T4, Corticotropin-releasing factor receptor 2/Corticotropin-releasing factor-binding protein. Briefly: activators of CRF receptor 2 with binding protein – uHTS hits, confirmation (AID 602473). Conditions: read-out: EC50_Mean. The format is functional.
The nature of experiment [9]: CRF-BP/CRF-R2 complex antagonists, dose response, cell-based, uHTS hits, 384-well (AID 651639). It counts as functional, Homo sapiens. Conditions: read-out: IC50_Mean.
A further experiment has as its target T6, Aminopeptidase N (Plasmodium falciparum FcB1/Columbia, UniProt O96935).
T6 sequence (O96935 whole entry): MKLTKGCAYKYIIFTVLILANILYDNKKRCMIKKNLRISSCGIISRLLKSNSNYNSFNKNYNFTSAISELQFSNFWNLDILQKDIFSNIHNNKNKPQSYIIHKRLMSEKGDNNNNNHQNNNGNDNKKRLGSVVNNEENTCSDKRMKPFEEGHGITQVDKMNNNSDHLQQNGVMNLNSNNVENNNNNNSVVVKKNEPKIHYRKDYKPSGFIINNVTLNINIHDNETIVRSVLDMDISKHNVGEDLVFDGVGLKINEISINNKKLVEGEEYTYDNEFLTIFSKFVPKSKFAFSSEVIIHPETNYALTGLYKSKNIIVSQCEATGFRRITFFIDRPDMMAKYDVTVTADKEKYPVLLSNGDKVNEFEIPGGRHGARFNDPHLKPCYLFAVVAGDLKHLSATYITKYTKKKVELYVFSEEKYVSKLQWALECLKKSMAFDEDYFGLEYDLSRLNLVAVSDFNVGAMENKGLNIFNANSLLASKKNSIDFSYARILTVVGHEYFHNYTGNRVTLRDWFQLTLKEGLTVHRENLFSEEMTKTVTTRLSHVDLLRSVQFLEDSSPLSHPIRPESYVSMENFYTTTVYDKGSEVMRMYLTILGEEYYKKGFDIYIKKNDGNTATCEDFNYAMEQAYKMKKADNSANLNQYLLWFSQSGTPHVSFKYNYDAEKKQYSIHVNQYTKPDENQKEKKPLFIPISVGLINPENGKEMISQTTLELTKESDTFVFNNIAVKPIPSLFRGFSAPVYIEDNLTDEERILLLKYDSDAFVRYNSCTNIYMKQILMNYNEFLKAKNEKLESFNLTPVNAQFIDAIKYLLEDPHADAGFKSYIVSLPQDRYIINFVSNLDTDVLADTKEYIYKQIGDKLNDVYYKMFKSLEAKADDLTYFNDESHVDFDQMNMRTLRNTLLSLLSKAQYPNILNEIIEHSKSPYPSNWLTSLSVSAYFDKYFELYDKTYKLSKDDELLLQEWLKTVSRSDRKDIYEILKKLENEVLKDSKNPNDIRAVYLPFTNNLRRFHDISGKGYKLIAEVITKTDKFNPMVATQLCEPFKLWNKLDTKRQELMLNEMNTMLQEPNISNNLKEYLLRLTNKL
Briefly: P. falciparum M1AAP inhibitors, biochemical, fluorogenic H-Leu-NHMec substrate, 1536-well (AID 1445). Details: species or system Plasmodium falciparum 3D7, 3D7.

In the next experiment the target is T7, Leucine aminopeptidase (Plasmodium falciparum 3D7, UniProt Q8IL11).
T7 sequence (Q8IL11 whole entry): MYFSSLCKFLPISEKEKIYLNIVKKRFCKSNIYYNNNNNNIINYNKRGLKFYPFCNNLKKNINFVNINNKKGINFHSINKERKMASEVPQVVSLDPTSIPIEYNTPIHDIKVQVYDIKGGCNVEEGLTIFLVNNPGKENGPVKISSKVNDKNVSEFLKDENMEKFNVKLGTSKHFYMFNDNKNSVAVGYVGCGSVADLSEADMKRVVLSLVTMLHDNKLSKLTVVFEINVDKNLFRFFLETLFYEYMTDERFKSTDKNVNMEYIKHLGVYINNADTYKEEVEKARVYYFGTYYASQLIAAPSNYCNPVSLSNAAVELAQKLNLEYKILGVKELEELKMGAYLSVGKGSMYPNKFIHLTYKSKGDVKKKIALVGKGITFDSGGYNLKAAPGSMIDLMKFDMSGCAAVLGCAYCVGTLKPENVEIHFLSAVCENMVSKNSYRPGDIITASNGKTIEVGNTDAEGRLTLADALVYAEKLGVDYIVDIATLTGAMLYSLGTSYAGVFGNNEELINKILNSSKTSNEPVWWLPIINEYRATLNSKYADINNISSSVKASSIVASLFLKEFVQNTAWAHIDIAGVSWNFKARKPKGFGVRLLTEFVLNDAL
Briefly: P. falciparum M17LAP inhibitors, primary screen, biochemical, fluorogenic H-Leu-NHMec substrate, 1536-well (AID 1619). It counts as functional.

Calls of active or inactive are those of the source. Where only a bound is given, the exact number is not on record here.

Sequence of Steroidogenic factor 1 (Q13285 whole entry): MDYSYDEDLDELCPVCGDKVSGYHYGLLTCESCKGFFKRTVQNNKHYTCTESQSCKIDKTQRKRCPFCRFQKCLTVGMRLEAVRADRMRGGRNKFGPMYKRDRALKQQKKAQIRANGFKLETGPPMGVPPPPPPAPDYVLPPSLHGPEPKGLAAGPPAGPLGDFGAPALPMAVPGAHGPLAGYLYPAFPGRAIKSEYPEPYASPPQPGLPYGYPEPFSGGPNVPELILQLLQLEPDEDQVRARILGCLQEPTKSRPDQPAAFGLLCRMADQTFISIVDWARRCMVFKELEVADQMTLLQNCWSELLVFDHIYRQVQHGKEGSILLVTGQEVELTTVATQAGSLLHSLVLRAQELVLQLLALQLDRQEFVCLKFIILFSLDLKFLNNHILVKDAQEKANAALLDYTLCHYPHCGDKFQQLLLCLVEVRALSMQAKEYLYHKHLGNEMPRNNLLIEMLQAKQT
Sequence of Nuclear receptor subfamily 5 group A member 2 (O00482 whole entry): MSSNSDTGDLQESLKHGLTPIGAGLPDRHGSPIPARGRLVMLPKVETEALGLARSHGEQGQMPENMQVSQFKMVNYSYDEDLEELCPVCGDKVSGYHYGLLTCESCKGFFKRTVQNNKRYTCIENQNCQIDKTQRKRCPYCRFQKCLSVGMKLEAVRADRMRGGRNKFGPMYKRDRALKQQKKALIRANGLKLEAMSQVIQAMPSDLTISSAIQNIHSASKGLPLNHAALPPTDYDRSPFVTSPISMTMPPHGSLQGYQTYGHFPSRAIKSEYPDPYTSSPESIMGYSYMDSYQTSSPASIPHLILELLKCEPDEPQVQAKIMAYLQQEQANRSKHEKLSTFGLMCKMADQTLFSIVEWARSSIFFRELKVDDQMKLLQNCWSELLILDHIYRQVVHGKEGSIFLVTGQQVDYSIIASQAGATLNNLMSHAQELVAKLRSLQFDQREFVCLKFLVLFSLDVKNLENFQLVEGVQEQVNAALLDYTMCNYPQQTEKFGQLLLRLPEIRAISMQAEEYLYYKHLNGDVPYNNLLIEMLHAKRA

Regarding `Cc1cc(C)c(C(CC(=O)c2cccs2)C(C#N)C#N)c(C)c1` (centres undefined), the AC50 in experiment [1] was 3.42 µM (active); in experiment [3], 5.08 µM (active). The IC50 in experiment [2] is 8.02 µM (active). Further, on Protein RecA, the EC50 was 2.31 µM (active).

On to `COc1ccc(CCNC(=O)CSc2ccc(NC(C)=O)cc2)cc1OC`, for which the IC50 in [4] was 35.9 µM (inactive); in experiment [5], 17.4 µM (inactive); on Steroidogenic factor 1, 2.27 µM (active).

With `O=C(c1ccco1)N(Cc1cccc([N+](=O)[O-])c1)c1ccc(Br)cc1`, the IC50 in [6] was < 0.368 µM (active); in experiment [7] it was 12 µM (not active); in experiment [9] it was > 20 µM (inactive). In addition, the EC50 in experiment [8] was > 53 µM (inactive).

Consider `COc1ccc(/C=C2\SC(NS(=O)(=O)c3cccs3)=NC2=O)cc1`, for which the IC50 in [6] was 36.5 µM (active); at Aminopeptidase N it was 41.1 µM (active); on Leucine aminopeptidase, 31 µM (active); in experiment [9] it was > 20 µM (inactive). The EC50 in experiment [8] is > 53 µM (inactive).

`CS(=O)(=O)c1ccc(-c2cc(NC=O)c3ncc(-c4ccc(F)cc4)n3c2)cc1`: the IC50 is 12.4 µM (inactive) in experiment [4], 4.22 µM (active) in experiment [5] and 2.73 µM (active) at Steroidogenic factor 1.

One may read the AC50 as the concentration giving half of the maximal activity seen.
